According to publication PMC6791878, “Evaluation of integrin αvβ6 cystine knot PET tracers to detect cancer and idiopathic pulmonary fibrosis” (Nature Communications, 2019):
“And” between values parts separate entries of the source, which are not always exact repeats. Identical values can stand only once. Like-named read-outs stand apart in the source and are kept apart here.

Experiments:
[1] = tested on: cervical cancer; experiment: [18F]FDG PET/CT (PUMC Hospital); format: in vivo, human; conditions: second cervical cancer patient
Protocol: All patients were instructed to avoid strenuous work or exercise for at least 24 h prior to the scheduled study date. Study participants were also instructed to fast for at least 4 h before intravenous administration of the PET tracer. Patients were administered [^18F]FDG at a dosage of 5.55 MBq (0.15 mCi) per kilogram body weight. Immediately after tracer administration, patients were allowed to rest and relax in a warm, darkened room for approximately 45–60 min. Next, each patient emptied their bladder. The PET scan that followed spanned a region from the mid-thigh area to the base of the skull (six bed positions, 2 min bed^−1).

[2] = tested on: pancreatic cancer; experiment: [18F]FP-R01-MG-F2 vs [18F]FDG PET/CT in a pancreatic cancer patient (Stanford); conditions: one patient
Protocol: The line was flushed with at least 10 ml normal saline after injection. • Blood samples for blood time activity measurements were taken at 1, 3, 5, and 10 min after tracer administration and then at 30-minute intervals for up to 3 h after tracer injection. The counts in whole blood and plasma were measured by gamma counter (Perkin Elmer Wizard 1470). […] The scan was performed over the abdominal region to include the pancreas. Attenuation correction was employed via CT (120 kV, 10 mA). […] The scan was performed over the chest region. Attenuation correction was employed via CT (120 kV, 10 mA). • Static total-body (vertex-to-toe) PET/CT scans were acquired at 60 min and 120 min post injection. CT was performed at 120 kV; it was dose-modulated based on body habitus with current ranging from 10-105 mA for the 60-minute scan. […] EKG data was analyzed to assess changes in overall rhythm of the heart. • On the day of the study, participants were asked to void frequently to reduce radiation exposure. Urine samples were collected at prior to tracer administration (baseline), prior to the static PE scans, at the end of the study day 1, and at the follow up visits 1 day and 7 days after tracer administration.
Upon co-registration of the PET and CT images, the CT images were used to determine regions of interest for the organs or tissues reported in the manuscript. These ROIs were applied to the PET images of the brain, pituitary gland, breast, lower and upper large intestine, small intestine, stomach, pancreas, heart wall, liver, lung, muscle, red marrow, bone, skin, and thyroid gland. For high uptake organs such as the kidneys, bladder and for the whole body, threshold-based segmentation of PET images were used to determine a close-fitting ROI around the entire organ or whole body. In order to determine accuracy, these PET-derived ROIs were compared to the CT overlay for a close match.

[3] = molecular target: T1, human integrin αvβ6 (Homo sapiens, UniProt P06756+P18564, DEL708-788); design: method as in Kimura et al., Clin. Can. Res., 2012; conditions: ref Kimura et al., Clin. Can. Res., 2012; cited from earlier work
T1 construct: purchased R&D Systems

[4] = molecular target: T1, human integrin αvβ6; experiment: Equilibrium binding of yeast-displayed knottins to soluble integrin αvβ6 (two-colour flow cytometry, KD)

T1 sequence (P06756 31-992 limits assumed, stated change not applied): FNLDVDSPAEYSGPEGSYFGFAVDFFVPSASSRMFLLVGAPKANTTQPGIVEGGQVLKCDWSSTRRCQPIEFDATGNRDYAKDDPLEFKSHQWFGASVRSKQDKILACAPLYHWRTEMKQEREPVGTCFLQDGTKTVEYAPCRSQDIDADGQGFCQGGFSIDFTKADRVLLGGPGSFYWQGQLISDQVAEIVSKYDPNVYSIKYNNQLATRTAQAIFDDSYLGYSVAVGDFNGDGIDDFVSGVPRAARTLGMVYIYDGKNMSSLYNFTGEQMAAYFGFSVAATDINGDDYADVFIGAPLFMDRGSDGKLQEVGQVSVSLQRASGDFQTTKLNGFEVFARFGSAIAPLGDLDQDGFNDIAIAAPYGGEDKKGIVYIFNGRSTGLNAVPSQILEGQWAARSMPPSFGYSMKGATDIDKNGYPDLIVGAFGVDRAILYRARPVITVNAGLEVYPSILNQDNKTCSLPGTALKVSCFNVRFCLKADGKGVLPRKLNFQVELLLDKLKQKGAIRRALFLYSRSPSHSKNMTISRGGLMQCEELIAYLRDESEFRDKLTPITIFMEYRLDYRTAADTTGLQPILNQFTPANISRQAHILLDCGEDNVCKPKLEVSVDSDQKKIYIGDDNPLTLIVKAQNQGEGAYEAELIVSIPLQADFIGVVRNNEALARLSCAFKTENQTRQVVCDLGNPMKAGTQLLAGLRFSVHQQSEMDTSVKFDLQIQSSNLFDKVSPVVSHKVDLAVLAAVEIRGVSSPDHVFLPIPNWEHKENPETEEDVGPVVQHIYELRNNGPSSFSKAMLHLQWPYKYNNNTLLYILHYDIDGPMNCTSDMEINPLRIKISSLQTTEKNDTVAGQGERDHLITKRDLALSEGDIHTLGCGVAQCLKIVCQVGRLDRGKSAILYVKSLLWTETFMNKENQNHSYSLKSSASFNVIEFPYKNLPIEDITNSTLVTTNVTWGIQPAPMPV
T1 sequence (P18564 22-707 limits assumed, stated change not applied): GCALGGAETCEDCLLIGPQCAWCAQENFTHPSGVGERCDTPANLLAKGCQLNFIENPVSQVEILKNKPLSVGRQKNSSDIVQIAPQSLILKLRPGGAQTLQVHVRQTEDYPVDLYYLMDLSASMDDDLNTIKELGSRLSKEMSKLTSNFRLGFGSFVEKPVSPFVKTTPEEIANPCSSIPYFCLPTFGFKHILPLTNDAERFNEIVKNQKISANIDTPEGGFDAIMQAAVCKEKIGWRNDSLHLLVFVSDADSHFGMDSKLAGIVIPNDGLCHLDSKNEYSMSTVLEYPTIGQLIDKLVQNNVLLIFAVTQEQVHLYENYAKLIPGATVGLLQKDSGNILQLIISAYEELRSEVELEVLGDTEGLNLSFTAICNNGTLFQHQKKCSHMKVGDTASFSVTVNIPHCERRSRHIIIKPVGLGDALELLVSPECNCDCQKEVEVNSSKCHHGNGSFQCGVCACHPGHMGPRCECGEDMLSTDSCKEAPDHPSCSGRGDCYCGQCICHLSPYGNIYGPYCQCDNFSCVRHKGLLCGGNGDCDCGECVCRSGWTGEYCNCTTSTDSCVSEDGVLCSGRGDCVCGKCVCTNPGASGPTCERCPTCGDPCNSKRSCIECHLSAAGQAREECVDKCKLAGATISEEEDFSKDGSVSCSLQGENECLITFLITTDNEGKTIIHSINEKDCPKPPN

SUVmean, cervical tumor [1] | SUVmean, liver ([2]; 1 h p.i.) | SUVmean, small intestines ([2]; 1 h p.i.) | SUVmean, stomach ([2]; 1 h p.i.) | SUVmean, pancreatic tumor ([2]; ~1 h p.i.) | SMILES | Kd [3] [nM] | Kd [4] [nM]
4.1 | 2.9 | 2.5 | 0.16 | 4.1 and ~ 4 | OC[C@H]1OC(O)[C@H]([18F])[C@@H](O)[C@@H]1O (stereo partly shown) [[^18F]FDG, reference compound] |  | 
 |  |  |  |  | CC[C@H](C)[C@@H]1NC(=O)[C@@H](NC(=O)CN)CSSC[C@@H]2NC(=O)[C@H](C)NC(=O)CNC(=O)[C@@H]3CCCN3C(=O)[C@@H]3CSSC[C@@H](C(=O)NCC(N)=O)NC(=O)[C@H](Cc4ccc(O)cc4)NC(=O)CNC(=O)[C@H](CC(N)=O)NC(=O)CNC(=O)[C@H](CCCNC(=N)N)NC(=O)[C@H](CSSC[C@H](NC(=O)[C@H](CCCNC(=N)N)NC(=O)[C@H](Cc4ccccc4)NC(=O)[C@H](CC(C)C)NC(=O)[C@H](CC(C)C)NC(=O)[C@H]([C@@H](C)O)NC(=O)CNC(=O)[C@H](CC(C)C)NC(=O)[C@H](CC(=O)O)NC(=O)[C@H]([C@@H](C)O)NC(=O)[C@H](CCCNC(=N)N)NC(=O)[C@H](CCSC)NC(=O)[C@H](CC(N)=O)NC(=O)[C@H](CC(C)C)NC1=O)C(=O)N[C@@H](CCCNC(=N)N)C(=O)N[C@@H](CCCNC(=N)N)C(=O)N[C@@H](CC(=O)O)C(=O)N[C@@H](CO)C(=O)N[C@@H](CC(=O)O)C(=O)N3)NC(=O)[C@H]([C@@H](C)CC)NC2=O [R01] | ~3 | ~1
